Data: patent US12319664B2, “Herbicidally active 3-phenylisoxazoline-5-carboxamides of cyclopentenylcarboxylic acid derivatives” (Bayer Aktiengesellschaft, priority 2018, dated 2025)

Assays:
ECHCG = experiment: Post-emergence herbicidal action against ECHCG; assay type: in vivo, Echinochloa crus-galli; settings: application rate 80 g/ha, rated visually after about 3 weeks
Procedure: (§1) [table] 2. Post-emergence herbicidal action against harmful plants and crop plant compatibility Seeds of monocotyledonous and dicotyledonous weeds and crop plants are placed in sandy loam in plastic or wood-fibre pots, covered with soil and cultivated in a greenhouse under controlled growth conditions. 2 to 3 weeks after sowing, the test plants are treated at the one-leaf stage. The compounds of the invention, formulated in the form of wettable powders (WP) or as emulsion concentrates (EC), are then sprayed onto the green parts of the plants as aqueous suspension or emulsion with addition of 0.5% additive at a water application rate of 600 l/ha (converted). After the test plants have been kept in the greenhouse under optimum growth conditions for about 3 weeks, the activity of the preparations is rated visually in comparison to untreated controls. For example, 100% activity=the plants have died, 0% activity=like control plants.

LOLRI = experiment: Post-emergence herbicidal action against LOLRI; assay type: in vivo, Lolium rigidum; settings: application rate 80 g/ha, rated visually after about 3 weeks
Procedure: as §1

AVEFA = experiment: Post-emergence herbicidal action against AVEFA; assay type: in vivo, Avena fatua; settings: application rate 80 g/ha, rated visually after about 3 weeks
Procedure: as §1

POLCO = experiment: Post-emergence herbicidal action against POLCO; assay type: in vivo, Polygonum convolvulus; settings: application rate 80 g/ha, rated visually about 3 weeks after treatment
Procedure: as §1

HORMU = experiment: Post-emergence herbicidal action against HORMU; assay type: in vivo, Hordeum murinum; settings: application rate 80 g/ha
Procedure: as §1

ALOMY = experiment: Post-emergence herbicidal action against ALOMY; assay type: in vivo, Alopecurus myosuroides; settings: application rate 80 g/ha, rated visually after about 3 weeks
Procedure: as §1

AMARE = experiment: Post-emergence herbicidal action against AMARE; assay type: in vivo, Amaranthus retroflexus; settings: application rate 80 g/ha, rated visually about 3 weeks after treatment
Procedure: as §1

SETVI = experiment: Post-emergence herbicidal action against SETVI; assay type: in vivo, Setaria viridis; settings: application rate 80 g/ha, rated visually after about 3 weeks
Procedure: as §1

STEME = experiment: Post-emergence herbicidal action against STEME; assay type: in vivo, Stellaria media; settings: application rate 80 g/ha, rated visually about 3 weeks after treatment
Procedure: as §1

ABUTH = experiment: Post-emergence herbicidal action against ABUTH; assay type: in vivo, Abutilon theophrasti; settings: application rate 80 g/ha, rated visually about 3 weeks after treatment
Procedure: as §1

VERPE = experiment: Post-emergence herbicidal action against VERPE; assay type: in vivo, Veronica persica; settings: application rate 80 g/ha
Procedure: as §1

| Compound | Herbicidal action against [%] ECHCG (ECHCG) [%] | Herbicidal action against [%] LOLRI (LOLRI) [%] | Herbicidal action against [%] AVEFA (AVEFA) [%] | Herbicidal action against [%] POLCO (POLCO) [%] | Herbicidal action against [%] HORMU (HORMU) [%] | Herbicidal action against [%] ALOMY (ALOMY) [%] | Herbicidal action against [%] AMARE (AMARE) [%] | Herbicidal action against [%] SETVI (SETVI) [%] | Herbicidal action against [%] STEME (STEME) [%] | Herbicidal action against [%] ABUTH (ABUTH) [%] | Herbicidal action against [%] VERPE (VERPE) [%] |
| --- | --- | --- | --- | --- | --- | --- | --- | --- | --- | --- | --- |
| C=CC1(C(=O)NC2C=CC(C(=O)NC(C(=O)OC)C(C)C)C2)CC(c2cc(F)cc(F)c2)=NO1 (mixture of isomers) [II-25] | 80 | 90 | 90 | 80 | 100 | 80 | 80 |  |  |  |  |
| O=C(OCCCl)[C@@H]1C=C[C@H](NC(=O)C2(C(F)(F)F)CC(c3ccccc3)=NO2)C1 (some centres unmarked) [Example I-025] | 80 | 90 | 90 | 100 | 80 | 90 | 90 | 90 | 80 |  |  |
| C=CC1(C(=O)NC2C=CC(C(=O)NC(C)(C)C#N)C2)CC(c2cc(F)cc(F)c2)=NO1 (mixture of isomers) [II-20] |  |  | 100 |  |  |  |  |  | 80 |  |  |
| COCCOC(=O)C1C=CC(NC(=O)C2(C)CC(c3cccc(C#N)c3)=NO2)C1 (mixture of isomers) [Example I-081] |  | 100 | 100 | 90 | 100 |  | 80 | 80 | 90 | 80 | 80 |
| C=CC1(C(=O)NC2C=CC(C(=O)N3CCCO3)C2)CC(c2cc(F)cc(F)c2)=NO1 (centres unmarked) [II-27] | 90 | 90 | 90 | 90 | 80 | 90 | 80 | 80 | 90 |  | 90 |
| Cc1cc(C)cc(C2=NOC(C(=O)NC3C=CC(C(=O)OCCCl)C3)(C(F)(F)F)C2)c1 (mixture of isomers) [Example I-056] | 80 | 90 | 90 | 80 | 80 | 100 | 80 | 80 | 90 |  | 80 |
| C=CC1(C(=O)NC2C=CC(C(=O)OC(C)C)C2)CC(c2cc(F)cc(F)c2)=NO1 (mixture of isomers) [Example I-034] | 80 | 100 | 90 | 80 | 90 | 90 |  | 80 | 90 | 80 | 90 |
| Cc1cc(C2=NOC(C(=O)NC3C=CC(C(=O)OCC(F)(F)F)C3)(C(F)(F)F)C2)cc(C(F)(F)F)c1 (mixture of isomers) [Example I-050] |  |  | 90 |  | 90 | 90 | 80 |  |  | 80 |  |
| CC1(C(=O)NC2C=CC(C(=O)OCCCl)C2)CC(c2cccc(C#N)c2)=NO1 (mixture of isomers) [Example I-079] | 80 |  | 90 | 90 | 100 | 90 | 90 | 90 | 80 | 80 | 90 |
| C=CC1(C(=O)NC2C=CC(C(=O)NC(C)(C)C(=O)OC)C2)CC(c2cc(F)cc(F)c2)=NO1 (centres unmarked) [II-22] |  | 90 | 90 |  | 90 | 80 |  |  | 80 |  | 80 |
| C=CC1(C(=O)N[C@H]2C=C[C@H](C(=O)N3CCCCO3)C2)CC(c2cc(F)cc(F)c2)=NO1 (some centres unmarked) [II-29] | 90 | 90 | 80 | 80 | 80 |  | 80 | 80 |  |  | 80 |
| COC(=O)C(C)(C)NC(=O)C1C=CC(NC(=O)C2(C)CC(c3cc(F)cc(F)c3)=NO2)C1 (mixture of isomers) [II-09] |  | 80 | 90 | 90 |  |  |  |  |  |  |  |
| C=CC1(C(=O)NC2C=CC(C(=O)N3CCCCO3)C2)CC(c2cc(F)cc(F)c2)=NO1 (mixture of isomers) [II-30] | 90 | 90 | 100 | 90 |  | 100 | 80 | 80 |  | 80 | 80 |
| CC(C)(C)OC(=O)C1C=CC(NC(=O)C2(C(F)(F)F)CC(c3cc(F)cc(F)c3)=NO2)C1 (mixture of isomers) [Example I-066] | 80 | 90 | 90 | 80 | 90 | 90 | 90 | 90 |  |  | 80 |
| CCOC(=O)C1C=CC(NC(=O)C2(C(F)(F)F)CC(c3cc(OC)cc(OC)c3)=NO2)C1 (mixture of isomers) [Example I-043] | 80 | 90 | 90 |  | 80 | 90 | 80 | 80 | 80 | 80 | 80 |
| COC(=O)CS(=O)(=O)NC(=O)C1C=CC(NC(=O)C2(C(F)(F)F)CC(c3cc(F)cc(F)c3)=NO2)C1 (centres unmarked) [II-39] |  | 80 | 90 |  | 80 | 80 | 80 |  |  |  | 80 |
| C=CC1(C(=O)NC2C=CC(C(=O)NC(C)(C)C(=O)OC)C2)CC(c2cc(F)cc(F)c2)=NO1 (centres unmarked) [II-21] |  |  |  | 80 |  |  |  |  |  |  |  |
| C=CC1(C(=O)NC2C=CC(C(=O)NC(C#N)C(C)C)C2)CC(c2cc(F)cc(F)c2)=NO1 (mixture of isomers) [II-17] |  |  |  |  |  | 80 |  |  |  |  |  |
